Data: the supplement of paper PMC6965134
± gives the standard deviation of the averaged measurements.

Experiment: TIMS collisional cross section (CCS, N2) of the lipid ion; higher = larger ion cross section
Details: ionization mode: negative, one isomer drawn
Procedure: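 Lipid extracts of human plasma (NIST SRM 1950), mouse liver or HeLa cells were separated by nanoflow C18 LC (30 min gradient) and analysed by TIMS-PASEF on a timsTOF Pro. Ion mobility was calibrated with the Agilent tuning mix (negative mode ions) and converted to collisional cross sections (Mason–Schamp, N2).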

[1] = sample type: Mouse Liver, ion (formula + adduct): [C39H72NO8P-H] 1-
[2] = sample type: Human plasma, ion (formula + adduct): [C43H74NO8P-H] 1-
[3] = sample type: Mouse Liver, ion (formula + adduct): [C43H74NO8P-H] 1-
[4] = sample type: Mouse Liver, ion (formula + adduct): [C45H82NO8P-H] 1-
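Note: lipids from MTBE extraction, five replicate injections per sample, 100 ms TIMS ramp spanning 0.6–1.95 Vs/cm², lipid identity assigned from PASEF MS/MS spectra.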

SMILES: CCCCC/C=C\C/C=C\CCCCCCCC(=O)OC(COC(=O)CCCCCCCCCCCCCCCCC)COP(=O)(O)OCCN (stereo unspecified) [PE 18:0_18:2]
- TIMS collisional cross section (sample type: Mouse Liver, ion (formula + adduct): [C41H78NO8P-H] 1-): 272.8 Å²

SMILES: CCCCCCCCC/C=C\CCCCCCCC(=O)O[C@H](COC(=O)CCCCCCCCCCCCCCCCC)COP(=O)(O)OCCN [PE 18:0_19:1]
- TIMS collisional cross section (sample type: Mouse Liver, ion (formula + adduct): [C42H82NO8P-H] 1-): 278 Å²

SMILES: CCCCCCCC/C=C\CCCCCCCCCC(=O)O[C@H](COC(=O)CCCCCCCCCCCCCCCCC)COP(=O)(O)OCCN [PE 18:0_20:1]
- TIMS collisional cross section (sample type: Mouse Liver, ion (formula + adduct): [C43H84NO8P-H] 1-): 282 Å²

SMILES: CCCCC/C=C\C/C=C\C/C=C\C/C=C\CCCC(=O)O[C@H](COC(=O)CCCCCCCCCCCCCCCCC)COP(=O)(O)OCCN [PE 18:0_20:4]
- TIMS collisional cross section (sample type: Human plasma, ion (formula + adduct): [C43H78NO8P-H] 1-): 276.8 Å²
- TIMS collisional cross section (sample type: Mouse Liver, ion (formula + adduct): [C43H78NO8P-H] 1-): 276.57 ± 0.29 Å²

SMILES: CC/C=C\C/C=C\C/C=C\C/C=C\C/C=C\C/C=C\CCC(=O)OC(COC(=O)CCCCCCCCCCCCCCCCC)COP(=O)(O)OCCN (stereo unspecified) [PE 18:0_22:6]
- TIMS collisional cross section (sample type: Human plasma, ion (formula + adduct): [C45H78NO8P-H] 1-): 281.8 Å²

SMILES: CCCCCCCC/C=C\CCCCCCCC(=O)OCC(COP(=O)(O)OCCN)OC(=O)CCCCCCC/C=C\CCCCCCCC (stereo unspecified) [PE 18:1_18:1]
- TIMS collisional cross section (sample type: Human plasma, ion (formula + adduct): [C41H78NO8P-H] 1-): 272.3 Å²

SMILES: CCCCC/C=C\C/C=C\CCCCCCCC(=O)O[C@H](COC(=O)CCCCCCC/C=C\CCCCCCCC)COP(=O)(O)OCCN [PE 18:1_18:2]
- TIMS collisional cross section (sample type: Human plasma, ion (formula + adduct): [C41H76NO8P-H] 1-): 272 Å²

SMILES: CCCCC/C=C\C/C=C\CCCCCCCCCCCC(=O)O[C@H](COC(=O)CCCCCCC/C=C\CCCCCCCC)COP(=O)(O)OCCN [PE 18:1_22:2]
- TIMS collisional cross section (sample type: Mouse Liver, ion (formula + adduct): [C45H84NO8P-H] 1-): 284.1 Å²

SMILES: CCCCC/C=C\C/C=C\CCCCCCCC(=O)OC[C@H](COP(=O)(O)OCCN)OC(=O)CCCCCCC/C=C\CCCCCC [PE 18:2_16:1@]
- TIMS collisional cross section [1]: 264 Å²

SMILES: CCCCC/C=C\C/C=C\CCCCCCCC(=O)OC[C@H](COP(=O)(O)OCCN)OC(=O)CCCCCCC/C=C\CCCCCC [PE 18:2_16:1]
- TIMS collisional cross section (sample type: Human plasma, ion (formula + adduct): [C39H72NO8P-H] 1-): 264.3 Å²
- TIMS collisional cross section [1]: 264.3 Å²

SMILES: CCCCC/C=C\C/C=C\CCCCCCCC(=O)OCC(COP(=O)(O)OCCN)OC(=O)CCCCCCC/C=C\C/C=C\CCCCC (stereo unspecified) [PE 18:2_18:2]
- TIMS collisional cross section (sample type: Human plasma, ion (formula + adduct): [C41H74NO8P-H] 1-): 268.8 Å²
- TIMS collisional cross section (sample type: Mouse Liver, ion (formula + adduct): [C41H74NO8P-H] 1-): 268.8 Å²

SMILES: CC/C=C\C/C=C\C/C=C\C/C=C\CCCCC(=O)OC[C@H](COP(=O)(O)OCCN)OC(=O)CCCCCCCCCCCCCCCCC [PE 18:4_18:0@]
- TIMS collisional cross section (sample type: Human plasma, ion (formula + adduct): [C41H74NO8P+AcO] 1-): 282.4 Å²

SMILES: CCCCC/C=C\C/C=C\C/C=C\C/C=C\CCCC(=O)O[C@H](COC(=O)CCCCCCCCCCCCCCCCCC)COP(=O)(O)OCCN [PE 19:0_20:4]
- TIMS collisional cross section (sample type: Mouse Liver, ion (formula + adduct): [C44H80NO8P-H] 1-): 279.6 Å²

SMILES: CC/C=C\C/C=C\C/C=C\C/C=C\C/C=C\C/C=C\CCC(=O)O[C@H](COC(=O)CCCCCCCCC/C=C\CCCCCCCC)COP(=O)(O)OCCN [PE 20:1_22:6]
- TIMS collisional cross section (sample type: Mouse Liver, ion (formula + adduct): [C47H80NO8P-H] 1-): 285.8 Å²

SMILES: CC/C=C\C/C=C\C/C=C\C/C=C\C/C=C\C/C=C\CCC(=O)O[C@H](COC(=O)CCCCCCCCC/C=C\C/C=C\CCCCC)COP(=O)(O)OCCN [PE 20:2_22:6]
- TIMS collisional cross section (sample type: Mouse Liver, ion (formula + adduct): [C47H78NO8P-H] 1-): 283.4 Å²

SMILES: CCCCC/C=C\C/C=C\C/C=C\CCCCCCC(=O)OC[C@H](COP(=O)(O)OCCN)OC(=O)CCCCCCCCCCCCCCC [PE 20:3_16:0]
- TIMS collisional cross section (sample type: Mouse Liver, ion (formula + adduct): [C41H76NO8P-H] 1-): 271.1 Å²

SMILES: CCCCC/C=C\C/C=C\C/C=C\CCCCCCC(=O)OC[C@H](COP(=O)(O)OCCN)OC(=O)CCCCCCCCCCCCCCCCC [PE 20:3_18:0]
- TIMS collisional cross section (sample type: Mouse Liver, ion (formula + adduct): [C43H80NO8P-H] 1-): 277.3 Å²

SMILES: CCCCC/C=C\C/C=C\C/C=C\C/C=C\CCCC(=O)OC[C@H](COP(=O)(O)OCCN)OC(=O)CCCCCCCCCCCCC [PE 20:4_14:0]
- TIMS collisional cross section (sample type: Mouse Liver, ion (formula + adduct): [C39H70NO8P-H] 1-): 263.7 Å²

SMILES: CCCCC/C=C\C/C=C\C/C=C\C/C=C\CCCC(=O)OC[C@H](COP(=O)(O)OCCN)OC(=O)CCCCCCC/C=C\C/C=C\CCCCC [PE 20:4_18:2@]
- TIMS collisional cross section [2]: 275.6 ± 3.2 Å²

SMILES: CCCCC/C=C\C/C=C\C/C=C\C/C=C\CCCC(=O)OC[C@H](COP(=O)(O)OCCN)OC(=O)CCCCCCC/C=C\C/C=C\CCCCC [PE 20:4_18:2]
- TIMS collisional cross section [3]: 272.7 Å²

SMILES: CCCCC/C=C\C/C=C\C/C=C\C/C=C\CCCC(=O)OC[C@H](COP(=O)(O)OCCN)OC(=O)CCCCCCCCCCCCCCCCCCC [PE 20:4_20:0]
- TIMS collisional cross section [4]: 281.8 Å²

SMILES: CCCCC/C=C\C/C=C\C/C=C\C/C=C\CCCC(=O)OC[C@H](COP(=O)(O)OCCN)OC(=O)CCCCCCCCCCCCCCCCCCCCC [PE 20:4_22:0]
- TIMS collisional cross section (sample type: Mouse Liver, ion (formula + adduct): [C47H86NO8P-H] 1-): 288 Å²

SMILES: CC/C=C\C/C=C\C/C=C\C/C=C\C/C=C\C/C=C\CCC(=O)O[C@H](COC(=O)CCC/C=C\C/C=C\C/C=C\C/C=C\CCCCC)COP(=O)(O)OCCN [PE 20:4_22:6]
- TIMS collisional cross section (sample type: Mouse Liver, ion (formula + adduct): [C47H74NO8P-H] 1-): 280.6 Å²

SMILES: CC/C=C\C/C=C\C/C=C\C/C=C\C/C=C\CCCC(=O)OC[C@H](COP(=O)(O)OCCN)OC(=O)CCCCCCCCCCCCCCCCC [PE 20:5@_18:0]
- TIMS collisional cross section (sample type: Human plasma, ion (formula + adduct): [C43H76NO8P-H] 1-): 276.2 Å²

SMILES: CC/C=C\C/C=C\C/C=C\C/C=C\C/C=C\CCCC(=O)OC[C@H](COP(=O)(O)OCCN)OC(=O)CCCCCCCCCCCCCCC [PE 20:5_16:0]
- TIMS collisional cross section (sample type: Human plasma, ion (formula + adduct): [C41H72NO8P-H] 1-): 269.4 Å²
- TIMS collisional cross section (sample type: Mouse Liver, ion (formula + adduct): [C41H72NO8P-H] 1-): 269.4 Å²

SMILES: CC/C=C\C/C=C\C/C=C\C/C=C\C/C=C\CCCC(=O)OC[C@H](COP(=O)(O)OCCN)OC(=O)CCCCCCC/C=C\CCCCCCCC [PE 20:5_18:1]
- TIMS collisional cross section [2]: 274.5 Å²
- TIMS collisional cross section [3]: 273.9 Å²

SMILES: CCCCC/C=C\C/C=C\C/C=C\C/C=C\CCCCCC(=O)OC[C@H](COP(=O)(O)OCCN)OC(=O)CCCCCCCCCCCCCCCCC [PE 22:4_18:0]
- TIMS collisional cross section (sample type: Human plasma, ion (formula + adduct): [C45H82NO8P-H] 1-): 283.6 Å²
- TIMS collisional cross section [4]: 283 Å²

SMILES: CC/C=C\C/C=C\C/C=C\C/C=C\C/C=C\C/C=C\CCC(=O)OC[C@H](COP(=O)(O)OCCN)OC(=O)CCCCCCC/C=C\CCCCCCCC [PE 22:6@_18:1]
- TIMS collisional cross section (sample type: Human plasma, ion (formula + adduct): [C45H76NO8P-H] 1-): 278.4 Å²

SMILES: CC/C=C\C/C=C\C/C=C\C/C=C\C/C=C\C/C=C\CCC(=O)OC[C@H](COP(=O)(O)OCCN)OC(=O)CCC/C=C\C/C=C\C/C=C\C/C=C\C/C=C\CC [PE 22:6@_20:5]
- TIMS collisional cross section (sample type: Mouse Liver, ion (formula + adduct): [C47H72NO8P-H] 1-): 279.4 Å²

SMILES: CC/C=C\C/C=C\C/C=C\C/C=C\C/C=C\C/C=C\CCC(=O)OC[C@H](COP(=O)(O)OCCN)OC(=O)CCCCCCCCCCCCC [PE 22:6_14:0]
- TIMS collisional cross section (sample type: Mouse Liver, ion (formula + adduct): [C41H70NO8P-H] 1-): 268.2 Å²

SMILES: CC/C=C\C/C=C\C/C=C\C/C=C\C/C=C\C/C=C\CCC(=O)OC[C@H](COP(=O)(O)OCCN)OC(=O)CCCCCCC/C=C\CCCCCC [PE 22:6_16:1]
- TIMS collisional cross section (sample type: Mouse Liver, ion (formula + adduct): [C43H72NO8P-H] 1-): 272.7 Å²

SMILES: CC/C=C\C/C=C\C/C=C\C/C=C\C/C=C\C/C=C\CCC(=O)OC[C@H](COP(=O)(O)OCCN)OC(=O)CCCCCCC/C=C\CCCCCCCC [PE 22:6_18:1]
- TIMS collisional cross section (sample type: Mouse Liver, ion (formula + adduct): [C45H76NO8P-H] 1-): 279.5 ± 0.85 Å²

SMILES: CC/C=C\C/C=C\C/C=C\C/C=C\C/C=C\C/C=C\CCC(=O)OC[C@H](COP(=O)(O)OCCN)OC(=O)CCCCCCC/C=C\C/C=C\CCCCC [PE 22:6_18:2]
- TIMS collisional cross section (sample type: Mouse Liver, ion (formula + adduct): [C45H74NO8P-H] 1-): 276.6 Å²

SMILES: CC/C=C\C/C=C\C/C=C\C/C=C\C/C=C\C/C=C\CCC(=O)OC[C@H](COP(=O)(O)OCCN)OC(=O)CCCCCCCCCCCCCCCCCCC [PE 22:6_20:0]
- TIMS collisional cross section (sample type: Mouse Liver, ion (formula + adduct): [C47H82NO8P-H] 1-): 287.5 Å²

SMILES: CC/C=C\C/C=C\C/C=C\C/C=C\C/C=C\C/C=C\CCC(=O)OC[C@H](COP(=O)(O)OCCN)OC(=O)CC/C=C\C/C=C\C/C=C\C/C=C\C/C=C\C/C=C\CC [PE 22:6_22:6]
- TIMS collisional cross section (sample type: Mouse Liver, ion (formula + adduct): [C49H74NO8P-H] 1-): 283.9 Å²
